This is an account of results in patent EP0877740B1, “THIOL DERIVATIVES WITH METALLOPEPTIDASE INHIBITORY ACTIVITY” (ZAMBON GROUP S.p.A., priority 1995, dated 1997).

The target in one experiment is T1, ACE (Oryctolagus cuniculus, UniProt P12822).
T1 construct: ACE (250 mU/ml purified by lung rabbit, EC 3.4.15.1 SIGMA); purchased SIGMA; host or cells: rabbit lung (tissue-purified)
T1 sequence (P12822 34-1310): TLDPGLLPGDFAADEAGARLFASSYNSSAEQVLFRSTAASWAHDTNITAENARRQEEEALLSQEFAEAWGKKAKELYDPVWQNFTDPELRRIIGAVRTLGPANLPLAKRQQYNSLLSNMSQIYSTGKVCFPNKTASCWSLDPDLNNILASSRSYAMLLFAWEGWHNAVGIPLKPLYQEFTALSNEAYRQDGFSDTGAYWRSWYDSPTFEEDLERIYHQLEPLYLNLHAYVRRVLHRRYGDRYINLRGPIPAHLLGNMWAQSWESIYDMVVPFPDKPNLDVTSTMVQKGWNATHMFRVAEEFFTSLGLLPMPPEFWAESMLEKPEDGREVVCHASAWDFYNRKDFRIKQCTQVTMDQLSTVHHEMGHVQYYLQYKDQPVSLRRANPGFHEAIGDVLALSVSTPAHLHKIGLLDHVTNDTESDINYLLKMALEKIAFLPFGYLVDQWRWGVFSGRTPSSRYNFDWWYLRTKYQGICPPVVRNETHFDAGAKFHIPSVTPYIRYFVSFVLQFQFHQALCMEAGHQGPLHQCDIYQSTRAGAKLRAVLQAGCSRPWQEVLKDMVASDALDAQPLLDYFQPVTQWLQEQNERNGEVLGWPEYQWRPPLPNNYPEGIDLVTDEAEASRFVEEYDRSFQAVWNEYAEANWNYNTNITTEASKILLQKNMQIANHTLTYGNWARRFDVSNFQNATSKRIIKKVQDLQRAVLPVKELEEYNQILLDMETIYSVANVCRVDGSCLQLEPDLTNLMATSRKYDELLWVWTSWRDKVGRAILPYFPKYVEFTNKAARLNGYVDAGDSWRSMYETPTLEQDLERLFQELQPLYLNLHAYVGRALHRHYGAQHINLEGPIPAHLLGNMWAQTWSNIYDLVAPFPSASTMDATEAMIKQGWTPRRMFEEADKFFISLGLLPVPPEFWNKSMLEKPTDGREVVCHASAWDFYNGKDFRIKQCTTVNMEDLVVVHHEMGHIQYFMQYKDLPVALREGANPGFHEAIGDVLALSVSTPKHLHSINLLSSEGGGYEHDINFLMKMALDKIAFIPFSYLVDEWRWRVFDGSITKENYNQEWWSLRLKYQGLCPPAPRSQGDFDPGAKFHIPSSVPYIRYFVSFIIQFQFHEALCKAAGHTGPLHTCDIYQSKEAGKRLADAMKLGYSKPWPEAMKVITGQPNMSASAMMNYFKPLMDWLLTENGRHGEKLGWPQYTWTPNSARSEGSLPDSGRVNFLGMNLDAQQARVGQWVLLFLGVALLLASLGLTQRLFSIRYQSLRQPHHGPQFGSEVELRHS
Nature of the experiment: In vitro ACE-inhibitory activity (FAPGG substrate, spectrophotometric). The class given is biochemical. As to conditions: ACE purified by lung rabbit, FAPGG 0.8 mM, 37°C. The procedure: […] of ACE (250 mU/ml purified by lung rabbit, EC 3.4.15.1 SIGMA) were preincubated with 50 µl of the compound of formula I or of the reference compound or related vehicle in thermostated cuvettes at 37°C.
The reaction was started by adding furylacryloylphenylalanylglycylglycine 0.8 mM (FAPGG-SIGMA).
Contemporaneously, by using a Beckman DU-50 spectrophotometer provided with a program for calculating delta A/minutes and regression coefficients of the enzyme kinetics curves, the absorbance at 340 nm was recorded in continuo for 5 minutes.
The percentage of the enzyme inhibition in the preparations treated with the compounds of formula I or with the comparative compounds with respect to the untreated preparations was expressed as IC50 (nM) value.

The next experiment deals with T2, NEP (Rattus norvegicus, UniProt P07861).
T2 sequence (P07861 1-750): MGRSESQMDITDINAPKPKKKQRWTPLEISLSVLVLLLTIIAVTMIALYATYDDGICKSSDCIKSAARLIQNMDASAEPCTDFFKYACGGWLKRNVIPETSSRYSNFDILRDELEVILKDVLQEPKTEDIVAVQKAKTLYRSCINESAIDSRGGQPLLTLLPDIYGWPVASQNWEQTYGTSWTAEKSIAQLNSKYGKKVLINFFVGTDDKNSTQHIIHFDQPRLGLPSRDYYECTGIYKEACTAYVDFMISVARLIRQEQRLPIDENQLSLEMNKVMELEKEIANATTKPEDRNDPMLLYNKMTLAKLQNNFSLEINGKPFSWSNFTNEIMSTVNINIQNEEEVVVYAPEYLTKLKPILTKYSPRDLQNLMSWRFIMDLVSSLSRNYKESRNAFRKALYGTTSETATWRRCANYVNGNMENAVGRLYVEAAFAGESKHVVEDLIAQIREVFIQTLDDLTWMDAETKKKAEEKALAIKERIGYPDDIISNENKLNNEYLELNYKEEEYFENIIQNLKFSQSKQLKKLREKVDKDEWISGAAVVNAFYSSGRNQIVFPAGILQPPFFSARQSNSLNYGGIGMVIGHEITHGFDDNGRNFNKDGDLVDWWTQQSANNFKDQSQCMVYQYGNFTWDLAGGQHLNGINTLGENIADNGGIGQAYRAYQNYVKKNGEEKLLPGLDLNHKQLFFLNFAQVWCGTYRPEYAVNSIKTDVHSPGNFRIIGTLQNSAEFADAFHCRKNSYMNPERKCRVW
The experiment can be described thus: In vitro NEP-inhibitory activity in rat kidney cortex membranes ([3H][Leu5]-enkephaline hydrolysis). The class given is biochemical. Conditions: [3H][Leu5]-enkephaline 15 nM, 30°C. On the set-up: Kidneys were removed from male Sprague-Dawley rats weighing approximately 300 g; from tissue; host or cells: rat kidney cortex membranes (male Sprague-Dawley). On the procedure: The NEP-inhibitory activity was evaluated in rat kidney cortex membranes prepared according to the procedure described by T. Maeda et al. in Biochim. Biophys.
Kidneys were removed from male Sprague-Dawley rats weighing approximately 300 g and kept at 4°C.
Kidney cortex was carefully dissected, finely minced and suspended in a homogenization buffer (10 mM sodium phosphate pH 7.4 containing 1 mM MgCl2, 30 mM NaCl, 0.02% NaN3) 1:15 weight/volume.
The tissue was then cold homogenized for 30 seconds using an Ultra-Turrax homogenizer.
The membranes were collected from the buffer/sucrose interface, washed twice with 50 mM TRIS/HCl buffer (pH 7.4) and resuspended into the same buffer for storage in small aliquots at -80°C until use.
The NEP-inhibitory activity was evaluated by using the method described by C.
Aliquots of the membrane suspension prepared as above described (concentration 5 µg/ml of proteins) were preincubated in the presence of an aminopeptidase inhibitor (Bestatin - 1 mM) for 10 minutes at 30°C.
Incubation (20 minutes at 30°C) was stopped by adding HCI 0.1M (100 µl).
The formation of the metabolite [^3H]Tyr-Gly-Gly was quantified by chromatography on polystyrene columns (Porapak Q).
The percentage of inhibition of the metabolite formation in the membrane preparations treated with the compounds of formula I and with the comparative compounds with respect to the untreated membrane preparations was expressed as IC50 (nM) value.

Take `O=C(N[C@@H](Cc1ccc(-c2nccs2)cc1)C(=O)O)C(CS)Cc1cccnc1` (single isomer, unassigned) [Compound 27, N-[3-mercapto-2-(3-pyridylmethyl)propionyl]-4-(2-thiazolyl)-L-phenylalanine]: the results for the IC50 against ACE and against NEP were 9.1 nM and 17.3 nM, respectively.

As to `C[C@H](CS)C(=O)N1CCC[C@H]1C(=O)O` [Captopril, reference compound], the “NEP-inhibitory activity IC50 (nM)” value on NEP is “not active”.

With `O=C(N[C@@H](Cc1ccc(-c2ccco2)cc1)C(=O)O)[C@@H](CS)Cc1ccccc1` [Compound 18, N-[(2S)-3-mercapto-2-phenylmethylpropionyl]-4-(2-furyl)-L-phenylalanine], the IC50 against ACE and against NEP was 1.8 nM in each case.

Regarding `O=C(N[C@@H](Cc1ccc(-c2cncnc2)cc1)C(=O)O)[C@@H](CS)Cc1ccccc1` [Compound 19, N-[(2S)-3-mercapto-2-phenylmethylpropionyl]-4-(5-pyrimidinyl)-L-phenylalanine], the concentration for half-maximal inhibition (IC50) (as a rule, the point on the concentration scale where inhibition reaches its midpoint) against ACE was 1.9 nM; on NEP, 1.8 nM.

With `O=C(N[C@@H](Cc1ccc(-c2cnccn2)cc1)C(=O)O)[C@@H](CS)Cc1ccccc1` [Compound 20, N-[(2S)-3-mercapto-2-phenylmethylpropionyl]-4-(2-pyrazinyl)-L-phenylalanine], the IC50 amounted to 1.5 nM at ACE and 2.5 nM against NEP.

As for `O=C(N[C@@H](Cc1ccc(-c2cccnc2)cc1)C(=O)O)[C@@H](CS)Cc1ccccc1` [Compound 21, N-[(2S)-3-mercapto-2-phenylmethylpropionyl]-4-(3-pyridyl)-L-phenylalanine], the 50% inhibitory concentration (IC50) came to 1.7 nM on ACE and 2.6 nM at NEP.

Turning to `O=C(N[C@@H](Cc1ccc(-c2ccccn2)cc1)C(=O)O)[C@@H](CS)Cc1ccccc1` [Compound 22, N-[(2S)-3-mercapto-2-phenylmethylpropionyl]-4-(2-pyridyl)-L-phenylalanine], the IC50 was found to be 1.8 nM against ACE and 2 nM on NEP.

In the case of `O=C(N[C@@H](Cc1ccc(-c2cccs2)cc1)C(=O)O)[C@@H](CS)Cc1ccccc1` [Compound 23, N-[(2S)-3-mercapto-2-phenylmethylpropionyl]-4-(2-thienyl)-L-phenylalanine], the figures for the concentration for half-maximal inhibition (IC50) against ACE and against NEP were 1.6 nM and 0.6 nM, respectively.

As for `O=C(N[C@@H](Cc1ccc(-c2ccsc2)cc1)C(=O)O)[C@@H](CS)Cc1ccccc1` [Compound 24, N-[(2S)-3-mercapto-2-phenylmethylpropionyl]-4-(3-thienyl)-L-phenylalanine], the IC50 at ACE was 2.5 nM; on NEP it was 1.3 nM.

For the molecule `O=C(N[C@@H](Cc1ccc(-c2ccoc2)cc1)C(=O)O)[C@@H](CS)Cc1ccccc1` [Compound 25, N-[(2S)-3-mercapto-2-phenylmethylpropionyl]-4-(3-furyl)-L-phenylalanine], the IC50 was determined as 2.4 nM against ACE and 1 nM at NEP.

On to `CC(C)CC(CS)C(=O)N[C@@H](Cc1ccc(-c2nccs2)cc1)C(=O)O` (stereo partly drawn) [Compound 28, N-(2-isobutyl-3-mercapto-propionyl)-4-(2-thiazolyl)-L-phenylalanine], for which the IC50 against ACE was 5.8 nM; on NEP, 1.8 nM.

For the molecule `COc1cccc(CC(CS)C(=O)N[C@@H](Cc2ccc(-c3nccs3)cc2)C(=O)O)c1` (stereo partly drawn) [Compound 29, N-[3-mercapto-2-(3-methoxyphenyl)methyl-propionyl]-4-(2-thiazolyl)-L-phenylalanine], the figures for the IC50 on ACE and against NEP were 4.6 nM and 9 nM, respectively.

`O=C(N[C@@H](Cc1ccc(-c2nccs2)cc1)C(=O)O)C(CS)Cc1ccccc1F` (stereo partly drawn) [Compound 30, N-[3-mercapto-2-(2-fluorophenyl)methyl-propionyl]-4-(2-thiazolyl)-L-phenylalanine]: the IC50 was 10.7 nM on ACE and 11.2 nM at NEP.

Take `O=C(N[C@@H](Cc1ccc(-c2nccs2)cc1)C(=O)O)C(CS)Cc1cccs1` (stereo partly drawn) [Compound 31, N-[3-mercapto-2-(2-thienyl)methyl-proionyl]-4-(2-thiazolyl)-L-phenylalanine]: the IC50 stood at 8.6 nM on ACE and 1.2 nM on NEP.

Consider `O=C(N[C@@H](Cc1ccc(-c2nccs2)cc1)C(=O)O)C(CS)Cc1ccco1` (stereo partly drawn) [Compound 32, N-[3-mercapto-2-(2-furyl)methyl-propionyl]-4-(2-thiazolyl)-L-phenylalanine], for which the IC50 on ACE amounted to 8.6 nM; against NEP, 4 nM.

`Cc1cc(CC(CS)C(=O)N[C@@H](Cc2ccc(-c3nccs3)cc2)C(=O)O)on1` (stereo partly drawn) [Compound 33, N-[3-mercapto-2-(3-methyl-5-isoxazolyl)methyl-propionyl]-4-(2-thiazolyl)-L-phenylalanine]: the half-maximal inhibitory concentration (IC50) was found to be 7.9 nM against ACE and 4.5 nM against NEP.
